Key:
Assay type in all cases: biochemical
JAK2 = molecular target: T1, JAK2 (Homo sapiens, UniProt O60674); experiment: Enzymatic JAK assay (Caliper mobility shift), JAK2; conditions: GST-JAK2 (808-1132) kinase domain, 1.8 nM enzyme, 20 μM ATP (KmATP), 30° C., 60 minutes
T1 construct: GST-JAK2 (808-1132); host or cells: insect cells
Description: (§1) Enzymatic JAK assays. For enzyme assays affinity-purified GST-fusions of the active kinase domains (GST-JAK1 (866-1154), GST-JAK2 (808-1132), GST-JAK3 (811-1124), and GST-TYK2(888-1187) were expressed in insect cells or purchased from Invitrogen (Carlsbad, USA). All assays were performed in 384-well microtiter plates with 8-point serial dilutions of compounds. The kinase reactions were started by stepwise addition of 4.5 μl per well of a 2× peptide/ATP-solution and 4.5 μl per well of a 2× enzyme solution. The final ATP concentration used in the assays corresponds to the individually determined KmATP for the respective enzyme. Assay buffer: 50 mM HEPES, pH 7.5, 1 mM DTT, 0.02% Tween20, 0.02% BSA, 0.6% DMSO, 10 mM beta-glycerophosphate, and 10 μM sodium orthovanadate. Other components were adjusted specifically for the respective kinase assays: JAK1: 16 nM enzyme, 70 μM ATP, 2 μM peptide substrate, 12 mM MgCl2. JAK2: 1.8 nM enzyme, 20 μM ATP, 2 μM peptide substrate, 9 mM MgCl2. JAK3: 13 nM enzyme, 18 μM ATP, 2 μM peptide substrate, 1.5 mM MgCl2. Tyk2: 3.5 nM enzyme, 35 μM ATP, 2 μM peptide substrate, 9 mM MgCl2. […] Phosphorylated and unphosphorylated peptides were separated using the Caliper microfluidic mobility shift technology on a Caliper LC3000 workstation and kinase activities were calculated from the amounts of formed phospho-peptide.

JAK1 = molecular target: T2, JAK1 (Homo sapiens, UniProt P23458); experiment: Enzymatic JAK assay (Caliper mobility shift), JAK1; conditions: GST-JAK1 (866-1154) kinase domain, 16 nM enzyme, 70 μM ATP (KmATP), 30° C., 60 minutes
T2 construct: GST-fusions of the active kinase domains (GST-JAK1 (866-1154)); host or cells: insect cells
Description: as §1

Tyk2 = molecular target: T3, Tyk2 (Homo sapiens, UniProt P29597); experiment: Enzymatic JAK assay (Caliper mobility shift), Tyk2; conditions: GST-TYK2(888-1187) kinase domain, 3.5 nM enzyme, 35 μM ATP (KmATP), 30° C., 60 minutes
T3 construct: GST-TYK2(888-1187); host or cells: insect cells
T3 sequence (P29597 888-1187): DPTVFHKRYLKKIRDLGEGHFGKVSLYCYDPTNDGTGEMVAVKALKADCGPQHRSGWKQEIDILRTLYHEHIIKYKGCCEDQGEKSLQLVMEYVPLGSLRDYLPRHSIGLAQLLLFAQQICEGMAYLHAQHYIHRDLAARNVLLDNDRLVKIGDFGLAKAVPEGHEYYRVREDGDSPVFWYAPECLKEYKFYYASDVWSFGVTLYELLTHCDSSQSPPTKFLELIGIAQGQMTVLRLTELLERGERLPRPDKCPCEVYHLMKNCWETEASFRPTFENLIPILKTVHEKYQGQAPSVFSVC
Description: as §1

JAK3 = molecular target: T4, JAK3 (Homo sapiens, UniProt P52333); experiment: Enzymatic JAK assay (Caliper mobility shift), JAK3; conditions: GST-JAK3 (811-1124) kinase domain, 13 nM enzyme, 18 μM ATP (KmATP), 30° C., 60 minutes
T4 construct: GST-JAK3 (811-1124); host or cells: insect cells
Description: as §1

T1 sequence (O60674 808-1132): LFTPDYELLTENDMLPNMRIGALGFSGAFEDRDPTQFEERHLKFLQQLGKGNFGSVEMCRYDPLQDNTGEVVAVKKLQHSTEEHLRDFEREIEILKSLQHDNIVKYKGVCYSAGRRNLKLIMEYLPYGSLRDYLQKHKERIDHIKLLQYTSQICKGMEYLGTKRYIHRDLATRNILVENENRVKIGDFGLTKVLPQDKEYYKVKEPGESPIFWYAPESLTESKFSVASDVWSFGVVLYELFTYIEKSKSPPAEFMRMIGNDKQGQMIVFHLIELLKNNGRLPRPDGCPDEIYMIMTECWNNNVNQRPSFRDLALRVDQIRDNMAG
T4 sequence (P52333 811-1124): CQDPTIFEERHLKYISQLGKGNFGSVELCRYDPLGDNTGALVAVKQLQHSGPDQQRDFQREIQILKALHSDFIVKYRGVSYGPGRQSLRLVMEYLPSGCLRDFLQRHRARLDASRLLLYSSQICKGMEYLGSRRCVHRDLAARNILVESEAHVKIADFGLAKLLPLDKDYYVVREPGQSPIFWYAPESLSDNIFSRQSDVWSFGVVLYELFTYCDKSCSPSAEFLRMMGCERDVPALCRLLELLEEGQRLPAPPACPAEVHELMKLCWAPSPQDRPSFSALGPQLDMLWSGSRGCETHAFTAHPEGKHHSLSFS
T2 sequence (P23458 866-1154): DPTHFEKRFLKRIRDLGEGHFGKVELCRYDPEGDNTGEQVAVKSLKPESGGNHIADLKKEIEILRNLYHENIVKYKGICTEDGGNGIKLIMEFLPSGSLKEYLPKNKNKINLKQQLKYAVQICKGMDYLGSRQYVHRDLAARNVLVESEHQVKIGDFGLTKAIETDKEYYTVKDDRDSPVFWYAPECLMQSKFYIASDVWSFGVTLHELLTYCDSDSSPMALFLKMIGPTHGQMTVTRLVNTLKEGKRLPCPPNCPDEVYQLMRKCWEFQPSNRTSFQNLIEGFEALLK

Row | IC50 (JAK2) [nM] | IC50 (JAK1) [nM] | IC50 (Tyk2) [nM] | IC50 (JAK3) [nM] | Structure (SMILES)
1 | 14 | 18 | 14 | 9 | NC(=O)c1cnc(Nc2ccccn2)cc1Nc1ccccc1Cl [Example 1, 4-((2-chlorophenyl)amino)-6-(pyridin-2-ylamino)nicotinamide]
2 | 25 | 12 | 24 | 15 | Cc1cccc(Nc2cc(Nc3ccccc3Cl)c(C(N)=O)cn2)n1 [Example 2, 4-((2-chlorophenyl)amino)-6-((6-methylpyridin-2-yl)amino)nicotinamide]
